One assay has as its target T1, AXL (Homo sapiens, UniProt P30530).
T1 sequence (P30530 26-894): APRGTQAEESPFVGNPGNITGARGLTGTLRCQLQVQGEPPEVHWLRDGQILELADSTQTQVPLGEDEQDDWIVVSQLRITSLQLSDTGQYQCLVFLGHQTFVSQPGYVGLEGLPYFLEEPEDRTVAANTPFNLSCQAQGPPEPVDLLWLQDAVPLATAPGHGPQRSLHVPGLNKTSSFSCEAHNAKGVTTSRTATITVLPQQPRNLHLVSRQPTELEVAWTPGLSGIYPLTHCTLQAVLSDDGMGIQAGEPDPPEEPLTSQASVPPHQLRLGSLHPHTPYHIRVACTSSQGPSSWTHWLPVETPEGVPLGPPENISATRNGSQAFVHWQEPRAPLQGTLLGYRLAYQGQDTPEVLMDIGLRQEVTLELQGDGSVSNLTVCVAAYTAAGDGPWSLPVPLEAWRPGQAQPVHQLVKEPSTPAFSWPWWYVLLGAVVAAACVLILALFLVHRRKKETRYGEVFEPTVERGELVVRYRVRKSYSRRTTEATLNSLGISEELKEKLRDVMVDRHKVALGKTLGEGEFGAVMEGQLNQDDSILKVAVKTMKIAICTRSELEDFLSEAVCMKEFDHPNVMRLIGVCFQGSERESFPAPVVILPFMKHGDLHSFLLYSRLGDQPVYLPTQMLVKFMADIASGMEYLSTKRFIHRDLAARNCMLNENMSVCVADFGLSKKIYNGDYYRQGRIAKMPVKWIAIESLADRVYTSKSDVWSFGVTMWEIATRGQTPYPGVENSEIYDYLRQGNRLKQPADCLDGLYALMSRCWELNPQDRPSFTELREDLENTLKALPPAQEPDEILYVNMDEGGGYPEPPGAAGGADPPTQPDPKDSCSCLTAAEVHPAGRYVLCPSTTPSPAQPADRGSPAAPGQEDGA
Description: IMAP fluorescence polarization kinase assay, AXL. The settings on record: ATP 24.7 μM, enzyme 2.5 nM, 240 minutes, read-out: AXL inhibitory constant (Ki). It counts as biochemical. The method, then: (§1) Activities of compounds against each of TYRO3, AXL, and MERTK as well as against FLT3, were determined using an immobilized metal ion affinity-based fluorescence polarization (“IMAP”) assay. A fluorescently-labeled substrate peptide was phosphorylated in the kinase reaction, after which a binding solution containing large trivalent metal-based nanoparticles was added and the phosphorylated substrate binds to these beads. This reduces the rotational speed of the substrate which is then detected using fluorescence polarization as a read-out.
(§2) The substrates used for each enzyme are as follows: AXL: 5F1-KKKKEEIYFFFG-NH2(SEQ ID NO:1); FLT3: 5F1-KKKKEEIYFFF-NH2 (SEQ ID NO:2); MERTK: 5F1-EFPIYDFLPAKKK-NH2 (SEQ ID NO:3); and TYRO3: 5F1-EFPIYDFLPAKKK-NH2 (SEQ ID NO:4).
(§3) This assay was performed in a 384-well, polystyrene microplate in a final volume of 8 μl. Substrate (final concentration=400 nM), ATP (final concentrations=24.7μM for AXL; 2.74 μM for FLT3; 2.69 μM for MERTK; and 54.0 μM for TYRO3), compounds and enzyme (final concentrations=2.5 nM for AXL, FLT3 and TYRO3; 1.5 nM for MERTK) were pipetted in this order into the appropriate reaction buffer (AXL: 50 mM HEPES, pH 8.0, 1 mM DTT, 10 mM MgCl2, 0.01% BRU35, 0.01% Triton X-100; FLT3: 50 mM HEPES, pH 8.0, 1 mM DTT, 10 mM MgCl2, 0.01% Triton X-100, 0.01% NP40; MERTK/TYRO3: 50 mM HEPES, pH 8.0, 1 mM DTT, 10 mM MgCl2, 0.01% Triton X-100) and incubated at room temperature for varying times (AXL, FLT3 and MERTK: 240 minutes; TYRO3: 60 minutes). IMAP binding solution was then dispensed, the plate incubated for 60 minutes at room temperature and the fluorescence polarization measured. Data were analyzed using XLfit.

The target in another assay is T2, TYRO3 (Homo sapiens, UniProt Q06418).
T2 sequence (Q06418 41-890): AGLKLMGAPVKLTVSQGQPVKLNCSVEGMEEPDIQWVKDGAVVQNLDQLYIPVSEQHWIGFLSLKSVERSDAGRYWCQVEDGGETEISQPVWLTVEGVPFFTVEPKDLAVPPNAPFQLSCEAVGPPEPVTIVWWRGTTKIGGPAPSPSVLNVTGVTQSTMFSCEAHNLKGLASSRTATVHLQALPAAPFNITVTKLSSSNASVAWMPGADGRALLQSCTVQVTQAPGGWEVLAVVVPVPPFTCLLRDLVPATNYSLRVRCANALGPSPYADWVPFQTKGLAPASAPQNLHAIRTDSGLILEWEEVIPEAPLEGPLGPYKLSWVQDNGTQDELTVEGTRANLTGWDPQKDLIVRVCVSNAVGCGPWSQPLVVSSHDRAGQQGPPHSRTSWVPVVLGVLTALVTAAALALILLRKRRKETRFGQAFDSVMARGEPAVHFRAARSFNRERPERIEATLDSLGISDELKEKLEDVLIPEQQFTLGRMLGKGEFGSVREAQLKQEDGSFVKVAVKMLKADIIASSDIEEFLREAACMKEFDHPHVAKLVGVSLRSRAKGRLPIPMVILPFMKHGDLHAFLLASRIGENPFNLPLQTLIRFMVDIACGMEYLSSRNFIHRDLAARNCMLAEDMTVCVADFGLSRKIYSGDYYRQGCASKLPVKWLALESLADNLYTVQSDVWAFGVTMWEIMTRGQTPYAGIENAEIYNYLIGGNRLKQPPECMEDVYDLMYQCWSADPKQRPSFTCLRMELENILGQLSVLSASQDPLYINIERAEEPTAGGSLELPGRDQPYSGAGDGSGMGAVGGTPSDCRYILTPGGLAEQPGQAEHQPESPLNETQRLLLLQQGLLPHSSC
Description: IMAP fluorescence polarization kinase assay, TYRO3. The assay is classed as biochemical. The settings on record: ATP 54.0 μM, enzyme 2.5 nM, 60 minutes, read-out: TYRO3 inhibitory constant (Ki). The method, then: as §1, §2, §3
(In general: Polarisation of emitted light reports the rotation of a fluorescent probe.)

Here are results for 4 molecules from patent US20200071326A1, “TAM KINASE INHIBITORS” (Syros Pharmaceuticals, Inc., priority 2017, published 2020).

Where a name gives a salt, the structure may show the parent alone.

For orientation: Ki means a dissociation constant, usually derived from enzyme kinetics or from competition with a known ligand. Regarding `CCCc1cc2c(N[C@H]3CC[C@H](N)CC3)c(C(=O)NC3CCN(c4ncccn4)CC3)cnc2[nH]1` [Compound 141], the Ki on AXL is 100 to 1000 nM; on TYRO3, less than 100 nM.
On the same counts, the results for `N[C@H]1CC[C@H](Nc2c(C(=O)Nc3ccc(F)cc3)cnc3[nH]c(C4CCC4)cc23)CC1` [Compound 138, 4-(((1r,4r)-4-aminocyclohexyl)amino)-2-cyclobutyl-N-(4-fluorophenyl)-1H-pyrrolo[2,3-b]pyridine-5-carboxamide hydrochloride] are 1000 to 10000 nM and less than 100 nM.
On the same counts, the results for `CCCc1cc2c(N[C@H]3CC[C@H](N)CC3)c(-c3ccc(N)cn3)cnc2[nH]1` [Compound 120] are 1000 to 10000 nM and less than 100 nM.
On the same counts, the results for `CCCc1cc2c(N[C@H]3CC[C@H](N)CC3)c(-c3cc(NC(C)C)ncn3)cnc2[nH]1` [Compound 112] are 100 to 1000 nM and less than 100 nM.
